# Reference: ChEMBL document CHEMBL1201862, “PubChem BioAssay data set” (2004)
# Calls of active or inactive are those of the source.
# Columns and labels:
# [1] = Trypanosoma cruzi growth suppression in host cells – NIH3T3 host cells, beta-gal luminescence, confirmation (AID 2044); format: functional, cell-based;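 note: intracellular parasites grown in NIH/3T3 mouse fibroblasts as host cells; luminescent beta-galactosidase reporter signal from transgenic T. cruzi replicating inside host cells; inhibitors lower the luminescence signal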
# [2] = NIH3T3 cell viability loss – ATP luminescence, mouse fibroblasts, counter-screen, dose response (AID 2010); format: functional, cell-based;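 note: cells exposed to compound for about 90 hours before reading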
# Fatty acid synthase = Fatty acid synthase (Homo sapiens, UniProt P49327); experiment: inhibition of human FAS-TE enzyme activity – biochemical, kinetic fluorescence intensity, dose response (AID 624326); format: functional;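 note: rate of fluorescence rise from hydrolysis of a fluorogenic O-methyl fluorescein ester substrate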
# Chain of Fatty acid synthase (P49327 whole entry): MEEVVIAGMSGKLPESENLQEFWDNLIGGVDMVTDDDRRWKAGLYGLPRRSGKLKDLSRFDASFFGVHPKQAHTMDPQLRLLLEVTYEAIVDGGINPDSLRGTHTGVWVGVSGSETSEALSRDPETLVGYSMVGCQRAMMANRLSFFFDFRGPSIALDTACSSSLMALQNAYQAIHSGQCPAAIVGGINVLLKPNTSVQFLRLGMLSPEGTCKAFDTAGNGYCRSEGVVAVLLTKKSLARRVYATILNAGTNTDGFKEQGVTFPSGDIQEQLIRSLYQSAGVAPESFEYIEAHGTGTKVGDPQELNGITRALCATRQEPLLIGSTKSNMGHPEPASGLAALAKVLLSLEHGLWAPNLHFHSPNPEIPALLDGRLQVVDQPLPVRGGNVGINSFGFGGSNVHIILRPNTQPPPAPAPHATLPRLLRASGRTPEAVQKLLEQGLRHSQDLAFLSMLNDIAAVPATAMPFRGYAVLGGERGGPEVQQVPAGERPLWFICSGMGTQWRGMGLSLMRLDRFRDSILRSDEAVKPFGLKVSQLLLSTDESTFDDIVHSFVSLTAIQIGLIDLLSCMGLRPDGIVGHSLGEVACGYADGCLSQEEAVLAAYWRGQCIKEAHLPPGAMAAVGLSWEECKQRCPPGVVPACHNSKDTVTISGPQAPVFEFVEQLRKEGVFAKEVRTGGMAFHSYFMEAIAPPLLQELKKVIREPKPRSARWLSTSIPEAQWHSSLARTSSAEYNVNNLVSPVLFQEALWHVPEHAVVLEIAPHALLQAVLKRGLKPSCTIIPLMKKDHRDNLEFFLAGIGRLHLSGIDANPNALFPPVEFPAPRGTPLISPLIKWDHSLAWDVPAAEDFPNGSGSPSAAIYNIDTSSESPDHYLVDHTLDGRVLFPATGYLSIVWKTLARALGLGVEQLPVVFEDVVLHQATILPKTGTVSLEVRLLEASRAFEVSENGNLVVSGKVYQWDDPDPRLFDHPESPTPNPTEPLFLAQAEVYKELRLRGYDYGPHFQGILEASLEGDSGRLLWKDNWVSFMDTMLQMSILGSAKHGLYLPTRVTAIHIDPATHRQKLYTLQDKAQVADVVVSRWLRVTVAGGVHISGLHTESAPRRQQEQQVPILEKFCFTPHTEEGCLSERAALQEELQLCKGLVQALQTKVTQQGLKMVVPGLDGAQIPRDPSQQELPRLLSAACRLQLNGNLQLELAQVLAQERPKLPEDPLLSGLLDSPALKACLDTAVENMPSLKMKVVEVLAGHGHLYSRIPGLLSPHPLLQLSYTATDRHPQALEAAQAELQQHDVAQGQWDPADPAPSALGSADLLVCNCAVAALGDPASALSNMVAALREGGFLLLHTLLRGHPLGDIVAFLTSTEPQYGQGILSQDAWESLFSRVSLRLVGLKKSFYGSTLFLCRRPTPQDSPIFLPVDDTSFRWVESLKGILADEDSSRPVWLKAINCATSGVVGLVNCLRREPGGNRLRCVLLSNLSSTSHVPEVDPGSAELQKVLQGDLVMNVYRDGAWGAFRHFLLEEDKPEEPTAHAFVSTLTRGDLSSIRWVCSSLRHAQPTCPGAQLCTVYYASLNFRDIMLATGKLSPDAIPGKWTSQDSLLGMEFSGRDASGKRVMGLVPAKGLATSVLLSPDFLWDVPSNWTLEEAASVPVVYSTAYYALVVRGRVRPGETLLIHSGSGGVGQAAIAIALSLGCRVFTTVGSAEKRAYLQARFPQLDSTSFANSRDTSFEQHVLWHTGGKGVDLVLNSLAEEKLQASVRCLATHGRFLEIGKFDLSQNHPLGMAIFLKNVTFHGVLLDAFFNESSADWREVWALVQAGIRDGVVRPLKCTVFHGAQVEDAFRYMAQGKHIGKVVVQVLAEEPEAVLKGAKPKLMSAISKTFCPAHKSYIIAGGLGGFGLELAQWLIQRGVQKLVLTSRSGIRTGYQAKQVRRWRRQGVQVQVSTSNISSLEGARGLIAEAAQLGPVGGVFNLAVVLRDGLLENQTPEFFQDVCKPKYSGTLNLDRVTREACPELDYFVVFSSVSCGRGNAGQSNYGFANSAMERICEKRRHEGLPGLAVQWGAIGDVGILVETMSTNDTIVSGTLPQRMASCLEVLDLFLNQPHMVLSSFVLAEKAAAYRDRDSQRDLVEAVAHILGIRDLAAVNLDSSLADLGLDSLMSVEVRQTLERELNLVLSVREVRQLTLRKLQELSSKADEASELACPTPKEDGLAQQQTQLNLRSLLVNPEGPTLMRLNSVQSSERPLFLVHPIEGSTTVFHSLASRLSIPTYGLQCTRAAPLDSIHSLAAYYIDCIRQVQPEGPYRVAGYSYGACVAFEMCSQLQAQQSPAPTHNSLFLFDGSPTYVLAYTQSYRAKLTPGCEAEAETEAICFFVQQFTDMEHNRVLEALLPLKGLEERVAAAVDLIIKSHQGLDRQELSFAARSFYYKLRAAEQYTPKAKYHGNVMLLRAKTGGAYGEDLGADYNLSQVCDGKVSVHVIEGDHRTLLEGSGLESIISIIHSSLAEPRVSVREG
# [3] = intracellular Trypanosoma cruzi inhibitors in host cells – cell-based, plate reader, cherry-pick samples, set 3, dose response (AID 651818); format: functional;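 note: compounds incubated with infected cells for about four days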
# [4] = biological target: NAD-dependent protein deacylase sirtuin-5, mitochondrial (Homo sapiens, UniProt Q9NXA8); experiment: sirtuin-5 deacylation blockers, concentration series – biochemical, fluorescence imaging, cherry-pick, set 5, dose response (AID 720591);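 note: desuccinylation of succinyl peptide AMC substrate read as fluorescence after trypsin release; potency of inhibitors that lower fluorescence and may act on trypsin instead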
# Chain of NAD-dependent protein deacylase sirtuin-5, mitochondrial (Q9NXA8 whole entry): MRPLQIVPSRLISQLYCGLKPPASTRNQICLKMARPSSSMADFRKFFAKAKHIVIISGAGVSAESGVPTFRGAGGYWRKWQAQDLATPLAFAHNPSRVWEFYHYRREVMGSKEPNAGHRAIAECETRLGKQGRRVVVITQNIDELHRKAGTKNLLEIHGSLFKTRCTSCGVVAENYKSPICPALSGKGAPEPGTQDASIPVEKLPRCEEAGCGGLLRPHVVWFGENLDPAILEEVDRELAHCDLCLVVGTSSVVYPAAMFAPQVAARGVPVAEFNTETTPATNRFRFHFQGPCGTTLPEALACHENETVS
# [5] = tested on: Streptococcus sp. 'group A'; experiment: Streptococcus pyogenes SK(-)GAS viability under kanamycin – luminescence, BacTiterGlo, confirmation, counter-screen for streptokinase expression inhibitor project, dose response (AID 1900); format: functional, organism-based
# BJ [6] = experiment: BJ-TERT fibroblast viability loss – cell-based, RAS-independent, luminescence, dose response (AID 1933); format: functional; details: Homo sapiens
# Streptokinase A = biological target: T1, Streptokinase A (Streptococcus pyogenes serotype M1, UniProt P10520); experiment: viability-normalized secreted streptokinase activity reduction – plasminogen activation absorbance, OD405, dose response (AID 1914); format: functional, Streptococcus pyogenes M1 GAS;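 note: secreted streptokinase activity via plasminogen activation per viability signal from cell pellet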
# T1 sequence (P10520 whole entry): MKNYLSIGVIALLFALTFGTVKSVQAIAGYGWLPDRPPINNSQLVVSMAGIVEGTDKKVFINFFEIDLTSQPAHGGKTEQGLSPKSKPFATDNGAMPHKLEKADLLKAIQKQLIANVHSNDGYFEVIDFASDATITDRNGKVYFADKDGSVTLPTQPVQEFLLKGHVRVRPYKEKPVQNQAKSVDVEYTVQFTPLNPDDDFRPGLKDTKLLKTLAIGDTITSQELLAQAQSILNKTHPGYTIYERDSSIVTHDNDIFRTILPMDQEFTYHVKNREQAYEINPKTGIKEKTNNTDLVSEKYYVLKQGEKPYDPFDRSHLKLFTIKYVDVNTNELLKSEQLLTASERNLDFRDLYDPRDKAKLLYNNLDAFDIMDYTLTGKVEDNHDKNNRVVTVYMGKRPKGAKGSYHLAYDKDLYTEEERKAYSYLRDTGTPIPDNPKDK
# BJ [7] = experiment: cells; format: functional, cell-based; details: Homo sapiens
# BJ [8] = experiment: BJ-TERT-LT-ST fibroblast viability loss – cell-based, RAS-independent, luminescence, dose response (AID 1935); format: functional; details: Homo sapiens;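 note: BJ fibroblasts immortalized with TERT plus LT and ST oncogenes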
# [9] = DRD fibroblast viability loss – cell-based, non-viral oncogenic, luminescence, dose response (AID 1934); format: functional; details: Homo sapiens
# Streptococcus = experiment: GAS UMAA2166 growth inhibition – luminescence, BacTiterGlo, counter-screen for streptokinase expression inhibitor project, dose response (AID 1915); format: functional, organism-based;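 note: potency for reduction of bacterial viability or growth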
# [10] = HEK-293T viability loss after treatment – luminescence, T-cell screen hits, cytotoxicity control for TCR NF-kB inhibitor project, dose response (AID 489026); format: functional, cell-based;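 note: cells exposed to compound about 14 hours before the viability readout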
# [11] = biological target: T2, Sentrin-specific protease 8 (Homo sapiens, UniProt Q96LD8); format: functional
# T2 sequence (Q96LD8 whole entry): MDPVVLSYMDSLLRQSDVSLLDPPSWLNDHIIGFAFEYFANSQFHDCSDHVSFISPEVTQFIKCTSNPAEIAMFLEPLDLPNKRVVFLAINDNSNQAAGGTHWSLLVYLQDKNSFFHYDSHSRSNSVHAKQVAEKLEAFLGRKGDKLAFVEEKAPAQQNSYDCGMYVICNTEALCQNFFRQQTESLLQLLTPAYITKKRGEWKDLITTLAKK
# [12] = biological target: T2, Sentrin-specific protease 8; format: functional; remark: listed apart in the source
# [13] = biological target: T3, Mannose-6-phosphate isomerase (Homo sapiens, UniProt P34949); experiment: MPI inhibition at elevated mannose 6-phosphate – biochemical, fluorescence intensity, high mannose 6-phosphate, primary screen (AID 1220)
# T3 sequence (P34949 whole entry): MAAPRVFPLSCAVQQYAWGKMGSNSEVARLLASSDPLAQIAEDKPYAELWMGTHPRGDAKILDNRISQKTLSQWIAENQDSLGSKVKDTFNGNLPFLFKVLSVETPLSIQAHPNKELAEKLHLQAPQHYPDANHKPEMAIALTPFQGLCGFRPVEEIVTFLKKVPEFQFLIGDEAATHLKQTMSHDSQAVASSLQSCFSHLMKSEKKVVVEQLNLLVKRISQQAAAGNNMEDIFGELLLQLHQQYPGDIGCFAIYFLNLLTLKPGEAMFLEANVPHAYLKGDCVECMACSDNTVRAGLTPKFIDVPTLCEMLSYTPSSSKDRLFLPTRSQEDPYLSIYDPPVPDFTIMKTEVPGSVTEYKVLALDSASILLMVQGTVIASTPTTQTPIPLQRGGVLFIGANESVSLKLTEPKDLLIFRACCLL
# [14] = biological target: SWI/SNF-related matrix-associated actin-dependent regulator of chromatin subfamily A member 2 (Homo sapiens, UniProt P51531); experiment: Luminescence-based cell-based high throughput dose response assay to identify activators of the function of SWI/SNF related, matrix associated, actin dependent regulator of chromatin, subfamily a, member 2 (SMARCA2, BRM).; format: functional
# Chain of SWI/SNF-related matrix-associated actin-dependent regulator of chromatin subfamily A member 2 (P51531 whole entry): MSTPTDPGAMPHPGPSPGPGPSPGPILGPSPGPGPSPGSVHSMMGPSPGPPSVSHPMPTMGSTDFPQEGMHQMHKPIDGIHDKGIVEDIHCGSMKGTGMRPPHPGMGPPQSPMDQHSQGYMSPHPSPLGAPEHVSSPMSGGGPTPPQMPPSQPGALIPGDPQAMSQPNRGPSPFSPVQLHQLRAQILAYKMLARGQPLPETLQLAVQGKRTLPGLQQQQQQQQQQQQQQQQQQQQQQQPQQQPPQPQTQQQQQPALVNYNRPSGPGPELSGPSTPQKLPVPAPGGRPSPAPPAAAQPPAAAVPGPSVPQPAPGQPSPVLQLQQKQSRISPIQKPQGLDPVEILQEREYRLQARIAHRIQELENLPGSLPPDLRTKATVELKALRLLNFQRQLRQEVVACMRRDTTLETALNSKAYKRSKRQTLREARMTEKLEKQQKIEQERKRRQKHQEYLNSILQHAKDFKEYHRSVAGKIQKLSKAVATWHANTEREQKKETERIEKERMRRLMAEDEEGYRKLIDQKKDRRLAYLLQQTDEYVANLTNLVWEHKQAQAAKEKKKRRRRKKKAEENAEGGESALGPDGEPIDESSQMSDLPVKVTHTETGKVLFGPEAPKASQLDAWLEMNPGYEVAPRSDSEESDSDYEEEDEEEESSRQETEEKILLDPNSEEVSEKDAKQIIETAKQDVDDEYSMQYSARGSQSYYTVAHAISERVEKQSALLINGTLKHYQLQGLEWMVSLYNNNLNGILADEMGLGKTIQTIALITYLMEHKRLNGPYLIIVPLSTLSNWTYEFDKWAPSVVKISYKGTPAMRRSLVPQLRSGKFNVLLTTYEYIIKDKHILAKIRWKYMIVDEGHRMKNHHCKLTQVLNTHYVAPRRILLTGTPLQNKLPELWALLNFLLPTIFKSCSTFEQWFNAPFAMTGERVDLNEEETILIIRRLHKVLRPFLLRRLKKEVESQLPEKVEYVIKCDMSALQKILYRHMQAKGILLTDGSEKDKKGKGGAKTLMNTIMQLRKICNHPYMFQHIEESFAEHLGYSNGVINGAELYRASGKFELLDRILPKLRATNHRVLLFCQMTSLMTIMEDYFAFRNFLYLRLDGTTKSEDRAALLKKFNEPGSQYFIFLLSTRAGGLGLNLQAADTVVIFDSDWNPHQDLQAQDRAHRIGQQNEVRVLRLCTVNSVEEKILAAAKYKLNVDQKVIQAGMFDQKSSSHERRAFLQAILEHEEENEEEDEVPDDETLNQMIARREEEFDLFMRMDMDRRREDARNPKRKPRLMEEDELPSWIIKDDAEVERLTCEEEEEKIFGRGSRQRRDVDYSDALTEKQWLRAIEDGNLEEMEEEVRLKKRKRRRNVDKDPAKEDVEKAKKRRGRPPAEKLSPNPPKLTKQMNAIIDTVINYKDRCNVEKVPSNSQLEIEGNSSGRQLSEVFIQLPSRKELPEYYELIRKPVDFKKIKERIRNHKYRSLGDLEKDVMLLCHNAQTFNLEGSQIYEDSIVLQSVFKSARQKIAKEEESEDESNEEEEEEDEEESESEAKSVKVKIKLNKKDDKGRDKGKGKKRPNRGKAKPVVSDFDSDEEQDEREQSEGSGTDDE
# [15] = Counterscreen for activators of the function of SWI/SNF related, matrix associated, actin dependent regulator of chromatin, subfamily a, member 2 (SMARCA2, BRM): Luminescence-based cell-based high throughput dose response assay to identify non-selective compounds using the VP16 reporter assay.; format: functional
# [16] = biological target: T4, Small ubiquitin-related modifier 1 (Homo sapiens, UniProt P63165); experiment: SUMO1 protein interaction blockers, potency – biochemical, fluorescence polarization, uHTS hits, dose response (AID 624382); format: functional; details: read-out: IC50_Mean
# T4 sequence (P63165 whole entry): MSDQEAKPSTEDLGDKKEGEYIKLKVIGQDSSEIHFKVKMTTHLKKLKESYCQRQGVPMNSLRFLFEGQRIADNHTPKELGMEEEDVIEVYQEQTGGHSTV
# [17] = biological target: T4, Small ubiquitin-related modifier 1; experiment: SUMO1 protein-protein binding blockers, potency – biochemical, FRET, dose response (AID 624383); format: functional; details: read-out: IC50_Mean
# [18] = Fluorescence-based cell-based high throughput dose response assay for inhibitors of the interaction of nucleotide-binding oligomerization domain containing 2 (NOD2) and the receptor-interacting serine-threonine kinase 2 (RIPK2).; format: functional; details: Homo sapiens
# Paired box protein Pax-8 = Paired box protein Pax-8 (Homo sapiens, UniProt Q06710); experiment: PAX8 transcriptional activity inhibition in RMG-I – RMG-I cells, luciferase, cherry-pick, dose response (AID 687027); format: functional, cell-based;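 note: luciferase reporter driven by Pax8 target thyroperoxidase promoter measured by SteadyGlo luminescence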
# Chain of Paired box protein Pax-8 (Q06710 whole entry): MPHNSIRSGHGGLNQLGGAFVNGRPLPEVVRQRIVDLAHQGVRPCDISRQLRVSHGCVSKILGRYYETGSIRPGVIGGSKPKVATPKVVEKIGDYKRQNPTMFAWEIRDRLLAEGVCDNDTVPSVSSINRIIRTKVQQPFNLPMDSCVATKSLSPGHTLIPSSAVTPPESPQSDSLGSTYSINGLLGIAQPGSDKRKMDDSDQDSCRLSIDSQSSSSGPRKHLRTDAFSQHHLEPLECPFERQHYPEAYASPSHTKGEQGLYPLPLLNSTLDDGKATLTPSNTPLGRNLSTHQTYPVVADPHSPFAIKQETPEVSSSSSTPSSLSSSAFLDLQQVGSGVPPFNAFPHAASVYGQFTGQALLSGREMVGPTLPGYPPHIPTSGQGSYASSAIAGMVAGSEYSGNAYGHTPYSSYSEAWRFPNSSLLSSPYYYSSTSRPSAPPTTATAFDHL
# [19] = Luminescence Cell-Based Dose Retest to Confirm Inhibitors of Cancer Stem Cells. [Related pubchem assays (depositor defined):AID2717, AID2721]; format: functional; details: Homo sapiens
# Nonstructural protein 1 = Nonstructural protein 1 (Influenza A virus, UniProt Q194T2); format: functional, Influenza A virus (A/California/07/2009(H1N1))
# [20] = biological target: T5, Heat shock factor protein 1 (Mus musculus, UniProt P38532); experiment: enhancement of HSF1-driven luciferase signal – cell-based, NIH3T3, luminescence, dose retest, confirmation (AID 435004); format: functional;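 note: stress induced by proteasome inhibitor MG132 added 30 min after compound; luciferase reporter driven by HSF1 response element in NIH3T3 cells; actives raise luminescence as potentiators of the MG132 stress response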
# T5 sequence (P38532 whole entry): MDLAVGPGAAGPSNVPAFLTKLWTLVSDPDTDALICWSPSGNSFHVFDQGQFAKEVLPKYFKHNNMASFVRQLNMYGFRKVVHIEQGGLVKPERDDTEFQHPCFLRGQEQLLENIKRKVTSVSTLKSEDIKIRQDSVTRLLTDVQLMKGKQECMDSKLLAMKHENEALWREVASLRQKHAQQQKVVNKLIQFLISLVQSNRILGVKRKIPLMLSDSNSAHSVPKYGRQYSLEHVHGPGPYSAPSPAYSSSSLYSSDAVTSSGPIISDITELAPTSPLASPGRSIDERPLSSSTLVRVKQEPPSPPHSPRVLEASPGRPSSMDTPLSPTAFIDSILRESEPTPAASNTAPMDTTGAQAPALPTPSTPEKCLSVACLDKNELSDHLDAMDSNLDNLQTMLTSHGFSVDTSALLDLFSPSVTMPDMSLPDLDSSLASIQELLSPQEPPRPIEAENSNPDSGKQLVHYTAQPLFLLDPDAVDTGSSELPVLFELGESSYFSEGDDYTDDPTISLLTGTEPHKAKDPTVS
# Vero = experiment: viability of Vero cells under compound – cytotoxicity control for flavivirus capping enzyme inhibitors (AID 588742); format: functional; details: Chlorocebus sabaeus
# [21] = biological target: T6, DNA repair protein RAD52 homolog (Homo sapiens, UniProt P43351); format: functional, biochemical
# T6 sequence (P43351 whole entry): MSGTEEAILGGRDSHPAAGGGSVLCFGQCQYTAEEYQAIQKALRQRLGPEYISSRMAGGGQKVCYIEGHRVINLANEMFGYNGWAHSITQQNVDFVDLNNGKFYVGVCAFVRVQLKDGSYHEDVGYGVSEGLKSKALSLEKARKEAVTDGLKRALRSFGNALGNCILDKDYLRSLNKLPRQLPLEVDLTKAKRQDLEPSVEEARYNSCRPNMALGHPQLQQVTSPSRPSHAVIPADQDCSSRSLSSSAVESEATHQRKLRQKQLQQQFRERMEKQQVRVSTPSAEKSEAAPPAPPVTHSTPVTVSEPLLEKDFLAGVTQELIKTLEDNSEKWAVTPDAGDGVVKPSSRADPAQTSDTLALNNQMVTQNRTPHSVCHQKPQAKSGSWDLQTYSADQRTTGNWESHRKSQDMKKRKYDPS
compound,measurement,setting,value
O=C(N/N=C/c1ccc([N+](=O)[O-])o1)c1cn(-c2ccccc2)nc1-c1ccc(Cl)cc1,EC50,[1],< 0.1 µM (active)
same,EC50,[2],> 30 µM (not active)
same,EC50,cells,0.028 µM (active)
COc1ccc(NC(=O)CC2C(=O)N(C)C(=S)N2Cc2cccs2)cc1 (centres undefined),IC50,Fatty acid synthase,15.8 µM (active)
C[C@@H]1CN([C@@H](C)CO)C(=O)Cc2cc(NC(=O)Nc3ccccc3)ccc2O[C@@H]1CN(C)Cc1ccc(Cl)c(Cl)c1,AC50,[3],3.92 µM (active)
Cc1cc(CNC(=O)Cc2c(F)cccc2Cl)nn1C,AC50,[4],> 30 µM (inactive)
COC(=O)c1cnc(Oc2ccc(NC(=O)NC(=O)c3c(F)cccc3Cl)cc2)cc1C(F)(F)F,EC50,[5],49 µM (active)
same,EC50,BJ [6],1.08 µM (active)
same,EC50,Streptokinase A,1.95 µM (active)
same,EC50,BJ [7],36.1 µM (inconclusive)
same,EC50,BJ [8],19.9 µM (active)
same,EC50,[9],3.69 µM (inconclusive)
same,EC50,Streptococcus,> 150 µM (not active)
same,IC50,[10],> 80 µM (inactive)
CC(=O)c1ccc(OC(=O)Cc2cccc3ccccc23)cc1,AC50,[4],10.4 µM (active)
CC1CC(C)CN(CCOCCSc2ccccc2)C1 (centres undefined),EC50,[1],< 0.1 µM (active)
same,EC50,[2],> 60 µM (inconclusive)
same,EC50,cells,0.09 µM (active)
Cc1cccc(-n2c(SCC(N)=O)nnc2-c2ccco2)c1,AC50,[4],> 30 µM (inactive)
NS(=O)(=O)c1ccc(CCNC(=O)COC(=O)c2ccc([N+](=O)[O-])o2)cc1,IC50,[11],6.46 µM (active)
same,IC50,[12],9.2 µM (active)
CN(C)/C=N/c1c(Br)cc(Br)c2nonc12,IC50,[13],> 50 µM (not active)
same,IC50,[11],21.3 µM (active)
same,IC50,[12],10.2 µM (active)
Cc1nc2c(Cl)cccc2c(O)c1CN1CCCCCC1,EC50,[1],< 0.1 µM (active)
same,EC50,[2],> 60 µM (not active)
same,EC50,cells,0.046 µM (active)
C[C@H](CO)N1C[C@H](C)[C@H](CN(C)Cc2ccc(C(=O)Nc3ccccc3N)cc2)Oc2c(NS(=O)(=O)c3ccccc3)cccc2C1=O,AC50,[3],2.19 µM (active)
CN1CCN(c2ccc(C(=O)c3ccc(Br)cc3)cc2[N+](=O)[O-])CC1,EC50,BJ [6],> 150 µM (not active)
same,EC50,BJ [7],> 150 µM (not active)
same,EC50,BJ [8],> 150 µM (not active)
same,EC50,[9],> 150 µM (not active)
CCN(CC)CCNC(=O)C(Cl)=C1C(Cl)=C(Cl)C(Cl)=C1Cl,EC50,[14],> 91.2 µM (inactive)
same,EC50,[15],> 91.2 µM (inactive)
O=C1C=CC(=O)N1c1ccc(Sc2ccc([N+](=O)[O-])cc2)cc1,EC50,BJ [6],7.87 µM (active)
same,EC50,BJ [7],21 µM (active)
same,EC50,BJ [8],> 75 µM (inconclusive)
same,EC50,[9],24.7 µM (active)
Cc1cc(NC(=O)c2ccco2)ncc1NC(=O)Cc1ccccc1,EC50,[14],> 91.2 µM (inactive)
same,EC50,[15],> 91.2 µM (inactive)
COc1ccc(C(=O)Nc2ccccc2C(=O)NC(Cc2ccc(O)cc2)C(=O)NNC(=O)c2ccc(C)cc2)cc1 (centres undefined),IC50,[16],> 66.6 µM (inactive)
same,IC50,[17],2.32 µM (active)
O=c1ccc2ccccc2c2ccccc12,IC50,[18],6.6 µM (active)
same,AC50,Paired box protein Pax-8,6.07 µM (active)
O=C/C=C/c1c(-c2ccccc2)cc2oc3ccccc3cc1-2,AC50,[19],10.4 µM (active)
same,IC50,Nonstructural protein 1,37.1 µM (active)
same,EC50,[20],> 260 µM (inactive)
same,CC50,Vero,> 40 µM (active)
COc1cc(C(=O)NNC(=O)C2CCC2)cc(OC)c1OC,AC50,[4],29.9 µM (active)
COc1ccc2sc3cccc(NCCN(C)C)c3c(=O)c2c1,EC50,[14],> 10.1 µM (inactive)
same,EC50,[15],> 91.2 µM (inactive)
same,AC50,[21],0.683 µM (active)
C[C@H](CO)N1C[C@H](C)[C@@H](CN(C)CC2CCCCC2)Oc2c(NC(=O)Nc3ccc(C(F)(F)F)cc3)cccc2C1=O,AC50,[3],3.48 µM (active)
C[C@H](CO)N1C[C@H](C)[C@H](CN(C)Cc2ccc(-c3ccccc3)cc2)Oc2ccc(NC(=O)Nc3ccc(C(F)(F)F)cc3)cc2CC1=O,AC50,[3],2.21 µM (active)
